Drawing on patent US12421199B2, “Sphingosine 1 phosphate receptor modulators” (RECEPTOS LLC, priority 2020, dated 2025), this text covers EC50 and Emax for two molecules.

One experiment addresses T1, S1P5 (Homo sapiens, UniProt Q9H228).
T1 construct: expressed in transfected cells; host or cells: CHO cell membranes
Description: [35S]-GTPγS binding assay, S1P5. In kind it is biochemical. The conditions noted are these: CHO-S1P receptor membranes; for Emax: control S1P, read-out: S1P5 % Efficacy. How it is done:
(§1) Binding assays for [35S]-GTPTS were performed in 96-well non-binding surface plates with a final volume of 200 μL. The test compounds were serial diluted in DMSO and added to assay plates using a Tecan D300E digital printer with a total volume of 0.4 μL. The control sphingosine-1-phosphate (S1P) was prepared separately by preparing a 400 μM stock solution from a 100 nmol pellet of S1P in 10 mM Na2CO3 with 2% […]. The serial dilution of S1P was done using complete assay buffer (20 mM HEPES, 10 mM MgCl2, 100 mM NaCl, 1 mM EDTA, 0.1% fatty acid free bovine serum albumin [BSA], and 30 μg/mL saponin, pH7.4) and transferred to wells already containing 0.4 μL DMSO. All the wells were then loaded to a total volume of 40 μL of complete assay buffer, except the non-specific binding (NSB) wells. For NSB wells, 40 µL/well of 50 μM GTPTS (Sigma Aldrich, cat #G8634, St. Louis, MO) was added to wells containing 0.4 μL of DMSO. The assay was started by the addition of 120 μL/well of CHO-S1P receptor membrane solution containing 40 μg/mL of membrane protein, 16.67 μM guanosine diphosphate (GDP; Sigma Aldrich, cat #G7127, St. Louis, MO), and 2.5 mg/mL of WGA PVT SPA beads in complete buffer. Assay plates were then sealed and incubated at room temperature with gentle agitation for 30 minutes. Next, 40 μL/well of 1 nM of [^35S]-GTPTS (PerkinElmer, cat #NEG030X250UC, Waltham, MA) in basic assay buffer (20 mM HEPES, 10 mM MgCl2, 100 mM NaCl, and 1 mM EDTA, pH7.4) was added to the assay plates to yield a final concentration of […] and the plates were further incubated for 40 minutes at room temperature with gentle agitation. The assay was terminated by centrifugation of the plates at 1000 rpm for 3 minutes using an Eppendorf 5810R centrifuge (Eppendorf, Hamburg, Germany) and G protein bound radioactivity was quantitated using a MicroBeta2 microplate scintillation counter (PerkinElmer, Waltham, MA).
On the technique in general: Binding of GTPγS marks nucleotide exchange on a G protein.

The next experiment deals with T2, S1P1 (Homo sapiens, UniProt P21453).
T2 construct: expressed in transfected cells; host or cells: CHO cell membranes
T2 sequence (P21453 whole entry, species assumed): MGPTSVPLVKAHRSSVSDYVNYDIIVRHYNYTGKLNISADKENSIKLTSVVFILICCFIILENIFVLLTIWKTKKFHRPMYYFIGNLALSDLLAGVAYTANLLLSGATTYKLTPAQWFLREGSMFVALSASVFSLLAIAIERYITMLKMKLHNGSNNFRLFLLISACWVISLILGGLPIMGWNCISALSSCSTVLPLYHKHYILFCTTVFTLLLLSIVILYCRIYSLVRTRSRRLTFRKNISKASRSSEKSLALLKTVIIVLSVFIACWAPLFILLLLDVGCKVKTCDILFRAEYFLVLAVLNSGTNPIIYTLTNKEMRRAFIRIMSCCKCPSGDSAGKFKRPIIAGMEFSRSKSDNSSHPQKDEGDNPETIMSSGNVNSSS
The experiment in a line: [35S]-GTPγS binding assay, S1P1. The conditions noted are these: CHO-S1P receptor membranes; for Emax: control S1P, read-out: S1P1 % Efficacy. In kind it is biochemical. The protocol: as §1

T1 sequence (Q9H228 whole entry, species assumed): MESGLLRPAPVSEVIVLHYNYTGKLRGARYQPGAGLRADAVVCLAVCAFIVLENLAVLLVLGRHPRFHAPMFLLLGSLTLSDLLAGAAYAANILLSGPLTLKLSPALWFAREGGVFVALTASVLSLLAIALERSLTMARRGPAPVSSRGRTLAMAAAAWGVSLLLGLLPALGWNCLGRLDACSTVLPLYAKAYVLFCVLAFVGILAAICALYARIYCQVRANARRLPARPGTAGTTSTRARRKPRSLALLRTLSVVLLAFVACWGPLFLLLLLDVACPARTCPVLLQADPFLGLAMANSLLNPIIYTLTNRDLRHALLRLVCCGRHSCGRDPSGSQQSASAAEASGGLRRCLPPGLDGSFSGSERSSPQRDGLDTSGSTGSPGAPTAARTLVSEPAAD

As a reminder, the EC50 is the concentration needed to bring the measured effect to its halfway point. For the molecule `CCC1(O)CCc2c(-c3noc(-c4ccc(OC(C)C)c(C#N)c4)n3)cccc21` (centres unmarked) [compound 3, 5-(3-(1-ethyl-1-hydroxy-2,3-dihydro-1H-inden-4-yl)-1,2,4-oxadiazol-5-yl)-2-isopropoxybenzonitrile], the concentration for a half-maximal effect (EC50) came to 147 nM at S1P5 and 14 nM on S1P1. Besides, the values for the Emax at S1P5 and at S1P1 were 80% and 97%, respectively.

Take `CC(C)Oc1ccc(-c2nc(-c3cccc4c3CCC4(O)C(C)C)no2)cc1C#N` (centres unmarked) [compound 4, 5-(3-(1-hydroxy-1-isopropyl-2,3-dihydro-1H-inden-4-yl)-1,2,4-oxadiazol-5-yl)-2-isopropoxybenzonitrile]: at S1P5, a half-maximal effect (EC50) was put at 77 nM and the Emax was 74%. On S1P1, the EC50 stood at 7 nM and the Emax came to 97%.
